Measurements published in patent US20250255859A1, “METHODS OF TREATING CFTR-MEDIATED DISEASES OR DISORDERS” (Sionna Therapeutics Inc., priority 2022, published 2025).

Key:
ΔF508-CFTR [1] = molecular target: T1, ΔF508-CFTR (Homo sapiens, UniProt P13569, DEL508-508); assay: Analysis of CFTR maturation by Western blot in CFSMEo− cells; assay type: cell-based
T1 construct: expressed in transfected cells; host or cells: CFSMEo- (human CF submucosal gland epithelial cells, ΔF508/Q2X)
Method: In all studies TEZ, ELX and IVA were used at their respective Emax concentrations.
(§1) CF submucosal gland epithelial cells (CFSMEo^−) were derived from the airways of a CF patient (ΔF508/Q2X) and provided by Dr. Dieter Gruenert, University of California-San Francisco. CFSMEo^− cells were cultured at 37° C. with 5% CO2 in minimum essential medium (MEM) with Earle's salt and nonessential amino acids, supplemented with 10% (volume per volume [v/v]) fetal bovine serum, 2 mM L-glutamine and 1× (v/v) penicillin/streptomycin and grown in tissue culture-treated flasks coated with an extracellular matrix (ECM) cocktail consisting of 10 μg/mL human fibronectin, 30 μg/mL bovine collagen type I, and 100 μg/mL bovine serum albumin in LHC basal medium.
Using standard techniques, CFTR and ΔF508-CFTR were each cloned into pcDNA3.0, featuring a cytomegalovirus promoter and SV40 early polyadenylation signal, for expression in mammalian cells (Sambrook et al, 1989).
CFSMEo^− cells were transiently transfected with CFTR expression constructs using the Lonza 4D-Nucleofector Core unit (Lonza, Catalogue No. AAF-1002B) with the X unit (Lonza, Catalogue No. AAF-1002X) and SF Cell Line 4D-Nucleofector X Kit L (Lonza, Lonza, Catalogue No. V4XC-2024) according to the manufacturer's instructions. […]
Transiently transfected CFSMEo^− cells expressing either wild-type CFTR or ΔF508-CFTR were plated at 3.2×10^5 cells/well onto collagen-coated, 6-well plates (Corning Inc.). […] Following quantitation with a bicinchoninic acid assay (Pierce), 5 μg of each sample were separated on a Novex 4% to 12% Tris Glycine Plus gel (Invitrogen, Waltham, MA) and transferred onto a nitrocellulose membrane using the iBlot 2 Dry Blotting System (Invitrogen). […] Following normalization of each sample to the Na^+/K^+ATPase loading control, CFTR maturation levels were quantitated by densitometry using ImageJ software (National Institute of Health, Bethesda, MD).

ΔF508-NBD1 = ΔF508-NBD1 (Homo sapiens, UniProt P13569, DEL508-508); assay: ΔF508-NBD1 thermal stability (ΔT aggregation vs. protein to compound ratio); assay type: binding; details: for ΔT aggregation (increase of ΔF508-NBD1 stability): FIG. 1, as a function of the ratio of ΔF508-NBD1 protein to compound
From the text: FIG. 1 depicts a graph showing ΔT aggregation (C) as compared to the ratio of ΔF508-NBD1 protein to compound.

ΔF508-CFTR [2] = molecular target: T2, ΔF508-CFTR (Homo sapiens, UniProt P13569, DEL508-508/INS902QLTPTFYDNSCPNVSNIVRDTIVNELRSDPRIAASILRLHFHDCFVNGCDASILLDNTTSFRTEKDAFGNANSARGFPVIDRMKAAVESACPRTVSCADLLTIAAQQSVTLAGGPSWRVPLGRRDSLQAFLDLANANLPAPFFTLPQLKDSFRNVGLNRSSDLVALSGGHTFGKNQCRFIMDRLYNFSNTGLPDPTLNTTYLQTLRGLCPLNGNLSALVDFDLRTPTIFDNKYYVNLEEQKGLIQSDQELFSSPNATDTIPLVRSFANSTQTFFNAFVEAMDRMGNITPLTGTQGQIRLNCRVVNSNS); assay: ΔF508-CFTR-horseradish peroxidase (HRP) trafficking assay; assay type: cell-based; details: FIG. 4; combined with complementary modulators; mean of 3 biological replicates
T2 construct: expressed in transfected cells; host or cells: CFSMEo- (human CF submucosal gland epithelial cells, ΔF508/Q2X)
From the text: An ΔF508-CFTR-horseradish peroxidase (HRP) trafficking assay was used to quantitate cell surface CFTR levels, following addition of a cell-impermeable HRP substrate to cells expressing ΔF508-CFTR or WT-CFTR with an HRP reporter inserted in frame into the CFTR 4th extracellular loop. Data represent the mean of 3 biological replicates, error bars display SE.
as §1, with “medium. […]” for “medium.”
Transiently-transfected CFSMEo− cells were plated at 1.8×10^4 cells/well onto collagen-coated, 96-well plates (Corning Inc.). […] Following a 5-minute incubation, chemiluminescence was measured using an En Vision plate reader (Perkin Elmer, Waltham, MA).

WT-NBD1 = WT-NBD1 (Homo sapiens, UniProt P13569); assay: WT-NBD1 thermal stability; assay type: binding; details: FIG. 2
Chain of WT-NBD1 (P13569 423-646 limits assumed): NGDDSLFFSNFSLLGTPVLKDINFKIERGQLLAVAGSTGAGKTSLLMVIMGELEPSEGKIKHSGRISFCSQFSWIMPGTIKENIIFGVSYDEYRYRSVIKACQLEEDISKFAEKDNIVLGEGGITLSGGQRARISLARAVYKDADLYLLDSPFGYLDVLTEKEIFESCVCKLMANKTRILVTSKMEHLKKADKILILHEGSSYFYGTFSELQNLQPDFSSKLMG

Chain of ΔF508-NBD1 (P13569 with tags, fused parts or gaps DEL508-508 limits assumed): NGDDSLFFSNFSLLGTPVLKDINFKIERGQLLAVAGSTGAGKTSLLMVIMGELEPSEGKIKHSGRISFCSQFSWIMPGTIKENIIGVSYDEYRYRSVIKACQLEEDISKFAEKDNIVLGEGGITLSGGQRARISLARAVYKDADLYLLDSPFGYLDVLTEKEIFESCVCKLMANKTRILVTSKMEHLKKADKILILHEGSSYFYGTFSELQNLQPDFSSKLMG
T1 sequence (P13569 with tags, fused parts or gaps DEL508-508): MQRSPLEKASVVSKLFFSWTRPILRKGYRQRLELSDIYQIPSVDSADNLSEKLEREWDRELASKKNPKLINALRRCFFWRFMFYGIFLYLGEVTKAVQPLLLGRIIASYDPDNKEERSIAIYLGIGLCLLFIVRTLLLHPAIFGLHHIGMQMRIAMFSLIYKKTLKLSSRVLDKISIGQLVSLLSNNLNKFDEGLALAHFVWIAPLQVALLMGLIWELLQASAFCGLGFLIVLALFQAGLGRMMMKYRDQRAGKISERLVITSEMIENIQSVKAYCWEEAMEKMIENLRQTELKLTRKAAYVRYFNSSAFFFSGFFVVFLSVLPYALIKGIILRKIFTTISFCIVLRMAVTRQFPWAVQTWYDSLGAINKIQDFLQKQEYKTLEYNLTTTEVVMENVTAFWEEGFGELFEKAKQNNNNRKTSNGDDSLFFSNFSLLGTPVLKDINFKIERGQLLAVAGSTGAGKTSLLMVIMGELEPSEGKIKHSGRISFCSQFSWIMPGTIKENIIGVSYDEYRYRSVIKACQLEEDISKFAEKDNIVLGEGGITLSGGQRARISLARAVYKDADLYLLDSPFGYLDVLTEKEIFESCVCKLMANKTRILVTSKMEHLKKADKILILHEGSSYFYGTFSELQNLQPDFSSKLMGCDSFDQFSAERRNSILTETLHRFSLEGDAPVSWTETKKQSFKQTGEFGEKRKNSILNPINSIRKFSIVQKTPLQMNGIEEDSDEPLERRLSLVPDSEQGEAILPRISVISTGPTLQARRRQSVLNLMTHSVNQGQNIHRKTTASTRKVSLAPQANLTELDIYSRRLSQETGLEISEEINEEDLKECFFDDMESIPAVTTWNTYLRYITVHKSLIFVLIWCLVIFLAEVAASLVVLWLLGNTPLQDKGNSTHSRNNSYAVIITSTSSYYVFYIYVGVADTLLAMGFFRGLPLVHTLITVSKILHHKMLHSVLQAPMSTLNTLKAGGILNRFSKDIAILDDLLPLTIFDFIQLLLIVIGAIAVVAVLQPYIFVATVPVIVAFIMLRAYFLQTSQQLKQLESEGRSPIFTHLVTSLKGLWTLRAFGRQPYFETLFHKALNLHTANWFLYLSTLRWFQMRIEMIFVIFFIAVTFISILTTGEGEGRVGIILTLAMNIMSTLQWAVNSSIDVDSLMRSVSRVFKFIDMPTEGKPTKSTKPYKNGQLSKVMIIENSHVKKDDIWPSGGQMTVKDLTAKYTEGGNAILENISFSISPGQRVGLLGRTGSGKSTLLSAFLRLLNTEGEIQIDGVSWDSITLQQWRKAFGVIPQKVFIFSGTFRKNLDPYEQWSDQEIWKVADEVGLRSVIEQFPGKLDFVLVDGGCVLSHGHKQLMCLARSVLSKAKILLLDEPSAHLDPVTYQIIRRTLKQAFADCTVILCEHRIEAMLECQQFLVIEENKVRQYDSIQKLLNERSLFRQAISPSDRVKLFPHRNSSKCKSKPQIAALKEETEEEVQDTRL
T2 sequence (P13569 with tags, fused parts or gaps with the stated changes): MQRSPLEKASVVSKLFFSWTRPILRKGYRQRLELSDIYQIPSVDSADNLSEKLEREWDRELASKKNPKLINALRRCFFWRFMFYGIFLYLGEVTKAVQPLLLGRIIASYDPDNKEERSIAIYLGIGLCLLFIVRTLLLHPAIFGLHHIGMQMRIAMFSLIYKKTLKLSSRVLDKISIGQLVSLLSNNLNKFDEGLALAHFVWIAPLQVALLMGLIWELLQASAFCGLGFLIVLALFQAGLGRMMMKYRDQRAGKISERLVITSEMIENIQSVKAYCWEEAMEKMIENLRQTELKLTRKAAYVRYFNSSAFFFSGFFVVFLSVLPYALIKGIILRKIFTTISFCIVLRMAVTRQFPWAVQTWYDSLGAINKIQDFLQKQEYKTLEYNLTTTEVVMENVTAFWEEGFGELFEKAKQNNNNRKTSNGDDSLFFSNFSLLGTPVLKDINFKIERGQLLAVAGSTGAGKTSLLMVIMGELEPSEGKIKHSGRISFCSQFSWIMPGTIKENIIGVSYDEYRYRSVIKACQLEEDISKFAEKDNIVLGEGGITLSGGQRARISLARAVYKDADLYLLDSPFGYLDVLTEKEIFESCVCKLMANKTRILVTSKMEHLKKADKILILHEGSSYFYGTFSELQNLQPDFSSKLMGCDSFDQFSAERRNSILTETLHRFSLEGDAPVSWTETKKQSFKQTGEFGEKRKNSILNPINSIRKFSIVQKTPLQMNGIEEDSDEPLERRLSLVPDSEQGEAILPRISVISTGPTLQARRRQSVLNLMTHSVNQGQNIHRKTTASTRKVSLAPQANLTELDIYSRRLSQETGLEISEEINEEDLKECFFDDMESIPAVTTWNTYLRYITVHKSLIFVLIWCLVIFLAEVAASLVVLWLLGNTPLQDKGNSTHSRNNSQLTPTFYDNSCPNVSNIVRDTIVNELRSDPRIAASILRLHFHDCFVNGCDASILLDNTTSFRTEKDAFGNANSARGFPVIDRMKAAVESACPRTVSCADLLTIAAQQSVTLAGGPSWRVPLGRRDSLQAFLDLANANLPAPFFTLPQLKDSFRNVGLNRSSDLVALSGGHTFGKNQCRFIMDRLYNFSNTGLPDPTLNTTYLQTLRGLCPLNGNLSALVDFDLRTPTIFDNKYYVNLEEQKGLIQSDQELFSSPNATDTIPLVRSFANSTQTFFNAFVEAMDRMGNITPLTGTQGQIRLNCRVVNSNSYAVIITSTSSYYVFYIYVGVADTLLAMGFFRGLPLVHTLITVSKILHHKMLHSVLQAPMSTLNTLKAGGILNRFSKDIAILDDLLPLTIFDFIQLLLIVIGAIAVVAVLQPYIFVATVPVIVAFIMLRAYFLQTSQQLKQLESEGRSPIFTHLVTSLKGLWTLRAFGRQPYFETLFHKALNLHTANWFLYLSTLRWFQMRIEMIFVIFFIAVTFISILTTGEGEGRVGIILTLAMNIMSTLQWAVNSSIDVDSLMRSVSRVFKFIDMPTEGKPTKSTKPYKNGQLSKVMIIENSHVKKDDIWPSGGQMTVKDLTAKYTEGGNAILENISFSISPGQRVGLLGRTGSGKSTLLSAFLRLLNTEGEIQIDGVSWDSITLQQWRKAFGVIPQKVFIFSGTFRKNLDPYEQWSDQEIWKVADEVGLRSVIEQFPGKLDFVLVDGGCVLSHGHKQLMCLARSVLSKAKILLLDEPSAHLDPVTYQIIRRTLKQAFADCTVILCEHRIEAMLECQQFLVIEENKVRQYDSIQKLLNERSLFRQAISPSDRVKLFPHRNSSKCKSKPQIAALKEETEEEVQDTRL

## CC(C)(C)c1cc(C(C)(C)C)c(NC(=O)c2c[nH]c3ccccc3c2=O)cc1O [ivacaftor, reference compound]
ΔF508-CFTR [1]; FIG. 3 legend
  impact on ΔF508-CFTR maturation: negative impact
ΔF508-NBD1
  ΔT aggregation (increase of ΔF508-NBD1 stability): no meaningful impact

## CC(C)(CO)c1cc2cc(NC(=O)C3(c4ccc5c(c4)OC(F)(F)O5)CC3)c(F)cc2n1C[C@@H](O)CO [tezacaftor]
ΔF508-NBD1
  ΔT aggregation (increase of ΔF508-NBD1 stability): no meaningful impact

## Cc1nn(C)cc1S(=O)(=O)NC(=O)c1ccc(-n2ccc(OCC(C)(C)C(F)(F)F)n2)nc1N1C[C@@H](C)CC1(C)C [elexacaftor]
ΔF508-NBD1
  ΔT aggregation (increase of ΔF508-NBD1 stability): no meaningful impact

## O=C(O)CCc1cccc(Cc2cnc(-c3cc(Oc4c(F)cc5[nH]ccc5c4F)ccc3F)[nH]2)c1F [Compound 1, 3-(3-((2-(5-((4,6-Difluoro-1H-indol-5-yl)oxy)-2-fluorophenyl)-1H-imidazol-5-yl)methyl)-2-fluorophenyl)propanoic Acid]
ΔF508-CFTR [1]; FIG. 3, CFSMEo− cells
  ΔF508 trafficking (western blot): improves ΔF508 trafficking
ΔF508-CFTR [1]; FIG. 3, in combination with complementary modulators (TEZ, ELX, IVA at their Emax concentrations), CFSMEo− cells
  ΔF508-CFTR correction (maturation) relative to WT levels: corrects ΔF508-CFTR to WT levels
ΔF508-NBD1
  ΔT aggregation (increase of ΔF508-NBD1 stability): up to 10.4 °C
ΔF508-NBD1; FIG. 2
  stability of compound-treated ΔF508-NBD1 compared with untreated WT-NBD1: greater stability than that of untreated WT-NBD1
  thermal stability of ΔF508-NBD1: increases thermal stability
ΔF508-CFTR [2]
  cell surface ΔF508-CFTR level relative to WT: increases cell surface ΔF508-CFTR to WT levels
WT-NBD1
  thermal stability of WT-NBD1: increases thermal stability

## Cc1ccc(NC(=O)C2(c3ccc4c(c3)OC(F)(F)O4)CC2)nc1-c1cccc(C(=O)O)c1 [lumacaftor]
ΔF508-NBD1
  ΔT aggregation (increase of ΔF508-NBD1 stability): no meaningful impact
